Laboratory results from patent publication US20230284660A1, “Siamenoside I Sweetened Compositions and Uses of the Same” (The Coca-Cola Company, priority 2017, published 2023).

Legend:
Type in all cases: in vivo, human
[1] = Mock beverage tasting of sweeteners in citric acid buffer and phosphoric acid buffer; settings: for Dosage for ~7 Brix SE: estimated concentrations, benchmark 500 ppm mogroside V
Source text: Siamenoside I was separately tasted in citric acid buffer (pH 3.2) and phosphoric acid buffer (pH 2.6) at 500 ppm and compared against an equivalent solution of RebM90 (RebM with at least 90% purity) and various other sweeteners.
Accordingly, the dosage of all other sweeteners was adjusted benchmark 500 ppm mogroside V. Estimated concentrations are presented below.

[2] = Blind bench tasting of lemon-lime flavored carbonated beverages; settings: in blends with Reb-M
Description: The ingredients were dissolved in filtered water to constitute a syrup (6.5 times concentrated), then the final beverage was made by weighing the appropriate syrup amount and adding carbonated water using a ratio of 1 part syrup+5.5 parts carbonated water. Target carbonation volume in finished beverages was […] of CO2. For samples with high Reb-M content (#1 and #2) syrup water was heated to about 47° C. to allow Reb-M solubility, then cooled down to ambient temperature before adding the remaining ingredients. Final beverages were filled in 300 ml glass bottles then aged for 3 days at 35° C. before they were cooled and served cold (4° C.).
Four experienced panelists bench tasted the beverages blindly. Each panelist was given warm bottled water and unsalted crackers to eat and rinse the palate between samples. A maximum of 3 samples was tasted at each session to avoid fatigue.

[3] = Blind bench evaluation of sweeteners in six beverage matrices, RebM90 as control; settings: Lemon Lime Sparkling (70% sugar reduction)
Description: A blind evaluation of the above-named sweeteners was conducted in six (6) beverage (liquid) matrices, including both sparkling and still matrixes. Of the six beverage matrices, four (4) were calorie reduction matrixes and two (2) were diet matrixes. RebM90 served as control. 7-10 internal team members blindly evaluated the samples.

Structure (SMILES)	Dosage for ~7 Brix SE [1] [ppm]	other results
C[C@H](CC[C@@H](O[C@@H]1O[C@H](CO)[C@@H](O)[C@H](O)[C@H]1O[C@@H]1O[C@H](CO)[C@@H](O)[C@H](O)[C@H]1O)C(C)(C)O)[C@H]1CC[C@@]2(C)[C@H]3CC=C4[C@@H](CC[C@H](O[C@@H]5O[C@H](CO[C@@H]6O[C@H](CO)[C@@H](O)[C@H](O)[C@H]6O)[C@@H](O)[C@H](O)[C@H]5O)C4(C)C)[C@]3(C)[C@H](O)C[C@]12C [Mogroside IV]	435	
C[C@H](CC[C@@H](O[C@@H]1O[C@H](CO[C@@H]2O[C@H](CO)[C@@H](O)[C@H](O)[C@H]2O)[C@@H](O)[C@H](O)[C@H]1O[C@@H]1O[C@H](CO)[C@@H](O)[C@H](O)[C@H]1O)C(C)(C)O)[C@H]1CC[C@@]2(C)[C@@H]3CC=C4[C@@H](CC[C@H](O[C@@H]5O[C@H](CO[C@@H]6O[C@H](CO)[C@@H](O)[C@H](O)[C@H]6O)[C@@H](O)[C@H](O)[C@H]5O)C4(C)C)[C@]3(C)[C@H](O)C[C@]12C [Mogroside V]	500	Brix SE ([1]; 500 ppm): approximately 7 Brix SE; relative sweetness of solutions ([1]; 500 ppm, citric acid buffer pH 3.2 and phosphoric acid buffer pH 2.6): the least sweet
C[C@H](CC[C@@H](O[C@@H]1O[C@H](CO)[C@@H](O)[C@H](O)[C@H]1O[C@@H]1O[C@H](CO)[C@@H](O)[C@H](O)[C@H]1O)C(C)(C)O)[C@H]1CC[C@@]2(C)[C@@H]3CC=C4[C@@H](CC[C@H](O[C@@H]5O[C@H](CO)[C@@H](O)[C@H](O)[C@H]5O)C4(C)C)[C@]3(C)[C@H](O)C[C@]12C [Mogroside IIIe]	350	
C[C@H](CC[C@@H](O[C@@H]1O[C@H](CO[C@@H]2O[C@H](CO)[C@@H](O)[C@H](O)[C@H]2O)[C@@H](O)[C@H](O)[C@H]1O[C@@H]1O[C@H](CO)[C@@H](O)[C@H](O)[C@H]1O)C(C)(C)O)[C@H]1CC[C@@]2(C)[C@@H]3CC=C4[C@@H](CC[C@H](O[C@@H]5O[C@H](CO)[C@@H](O)[C@H](O)[C@H]5O)C4(C)C)[C@]3(C)[C@H](O)C[C@]12C [Siamenoside I]	350	maximum sweetness intensity [2]: 10 Brix equivalent
C[C@H](CC[C@@H](O[C@@H]1O[C@H](CO[C@@H]2O[C@H](CO)[C@@H](O)[C@H](O)[C@H]2O)[C@@H](O)[C@H](O)[C@H]1O[C@@H]1O[C@H](CO)[C@@H](O)[C@H](O)[C@H]1O)C(C)(C)O)[C@H]1CC[C@@]2(C)[C@@H]3CC=C4[C@@H](CC[C@H](O[C@@H]5O[C@H](CO)[C@@H](O[C@@H]6O[C@H](CO)[C@@H](O)[C@H](O)[C@H]6O)[C@H](O)[C@H]5O)C4(C)C)[C@]3(C)[C@H](O)C[C@]12C [Isomogroside V]	270	Comments: less sweet [3]: less sweet (−1.5 BE), mogroside
C=C1C[C@@]23CC[C@H]4[C@@](C)(CCC[C@@]4(C)C(=O)O[C@@H]4O[C@H](CO)[C@@H](O)[C@H](O[C@@H]5O[C@H](CO)[C@@H](O)[C@H](O)[C@H]5O)[C@H]4O[C@@H]4O[C@@H](C)[C@H](O)[C@@H](O)[C@H]4O)[C@@H]2CC[C@]1(O[C@@H]1O[C@H](CO)[C@@H](O)[C@H](O[C@@H]2O[C@H](CO)[C@@H](O)[C@H](O)[C@H]2O)[C@H]1O[C@@H]1O[C@H](CO)[C@@H](O)[C@H](O)[C@H]1O)C3 [Rebaudioside N]	360	
